Test results: paper PMC3696112 (PLoS ONE, 2013)

Biological target: T1, Ech (enoyl-CoA hydratase/aldolase) (Streptomyces sp. V-1, UniProt S5LPF1)
T1 construct: ATCC 39116
T1 sequence (S5LPF1 1-287): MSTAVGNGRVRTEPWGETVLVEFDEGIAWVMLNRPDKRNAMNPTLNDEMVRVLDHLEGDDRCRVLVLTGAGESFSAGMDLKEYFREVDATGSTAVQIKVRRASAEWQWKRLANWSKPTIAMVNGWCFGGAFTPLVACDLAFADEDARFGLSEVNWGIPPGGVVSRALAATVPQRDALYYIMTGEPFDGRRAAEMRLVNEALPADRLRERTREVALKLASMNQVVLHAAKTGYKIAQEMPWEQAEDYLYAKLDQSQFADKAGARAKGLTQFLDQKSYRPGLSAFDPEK
Assay: coupled assay with purified Fcs, GC analysis (qualitative)
Type: biochemical
Settings: feruloyl-CoA made in situ from 0.7 mM ferulic acid by Fcs; 2 mM ATP, 0.4 mM CoA, 2.5 mM MgCl2, 100 mM potassium phosphate pH 7.0

COc1cc(C=O)ccc1O [vanillin, 4-hydroxy-3-methoxybenzaldehyde]
coupled assay with purified Fcs, GC analysis (qualitative): production of vanillin, catalyzed by Ech, were observed and analyzed qualitatively from the GC spectrum
